Assay: xn = mol fraction of the nth substance listed
Settings: Liquid, pressure decay method, x1 = 0

Molecule `FC(C(F)(F)F)C(F)(F)F` [1,1,1,2,3,3,3-heptafluoropropane] + CCCCCC[n+]1ccn(C)c1.O=S(=O)([N-]S(=O)(=O)C(F)(F)F)C(F)(F)F has a binary diffusion coefficient (303.15 K, 99.7 kPa) of 2.72e-10 m2/s, a binary diffusion coefficient (313.15 K, 99.6 kPa) of 3.5e-10 m2/s and a binary diffusion coefficient (323.15 K, 97.1 kPa) of 5.28e-10 m2/s. For the same molecule, the binary diffusion coefficient (333.15 K, 105 kPa) was 9.6e-10 m2/s and the binary diffusion coefficient (343.15 K, 104.6 kPa) was 1.26e-09 m2/s.

With `FC(F)(F)CC(F)(F)F` [1,1,1,3,3,3-hexafluoropropane] + CCCCCC[n+]1ccn(C)c1.O=S(=O)([N-]S(=O)(=O)C(F)(F)F)C(F)(F)F the binary diffusion coefficient (303.15 K, 86 kPa) was 1.55e-10 m2/s, the binary diffusion coefficient (313.15 K, 85.5 kPa) was 2.4e-10 m2/s and the binary diffusion coefficient (323.15 K, 95.7 kPa) was 4.09e-10 m2/s. It also gave a binary diffusion coefficient (333.15 K, 90.1 kPa) of 5.96e-10 m2/s and a binary diffusion coefficient (343.15 K, 90.7 kPa) of 8.42e-10 m2/s.

Work on `FC(F)CC(F)(F)F` [1,1,1,3,3-pentafluoropropane] + CCCCCC[n+]1ccn(C)c1.O=S(=O)([N-]S(=O)(=O)C(F)(F)F)C(F)(F)F yielded a binary diffusion coefficient (303.15 K, 50.4 kPa) of 8.4e-11 m2/s, a binary diffusion coefficient (313.15 K, 63.9 kPa) of 1.22e-10 m2/s and a binary diffusion coefficient (323.15 K, 69.8 kPa) of 2.06e-10 m2/s. The binary diffusion coefficient (333.15 K, 74.9 kPa) was 2.75e-10 m2/s and the binary diffusion coefficient (343.15 K, 84.6 kPa) was 3.47e-10 m2/s.

— the NIST ThermoML archive (doi:10.1016/j.jct.2018.04.004)
